# Where two headings read alike, the source gives them in different places.
# How the values were obtained:
# [1] = tested on: 3CL^pro; settings: in vivo; cited from earlier work
# [2] = tested on: SARS-CoV-2 3CL^pro
molecule,measurement,setting,value
CC(C)(C)[C@H](NC(=O)C(F)(F)F)C(=O)N1C[C@H]2[C@@H]([C@H]1C(=O)N[C@H](C#N)C[C@@H]1CCNC1=O)C2(C)C [PF-07321332],phase I clinical trial result,[1],promising results
ACE-HIE-ALA-PRO-TRP-NME [4P3],inhibition (loss) of 3CL^pro activity,[2]; pH 7.2,more than 80%
same,inhibition of 3CL^pro (in words),[2]; pH 7.2,most potent
same,residual activity of 3CL^pro,[2]; pH 7.2,below 20%
ACE-HIE-HIE-PRO-TYR-NME [4P4],inhibition (loss) of 3CL^pro activity,"[2]; 20 μM peptide, 500 nM 3CL^pro, 30 min pre-incubation, 50 µM DABCYL-KTSAVLQ↓SGFRKME-EDANS, 30 min, 37°C, 20 mM Tris pH 7.2, 200 mM NaCl, 1 mM EDTA, 1 mM TCEP, fluorescence 360/460 nm, mean, n = 3",more than 80%
same,residual activity of 3CL^pro,"[2]; 20 μM peptide, 500 nM 3CL^pro, 30 min pre-incubation, 50 µM fluorogenic substrate, 37°C, pH 7.2, mean, n = 3",below 20%

# Source: publication PMC8852625, “A Computer-Aided Approach for the Discovery of D-Peptides as Inhibitors of SARS-CoV-2 Main Protease” (Frontiers in Molecular Biosciences, 2022)
